The values that follow are results of earlier work, collected in patent US20210315915A1, “PHARMACEUTICAL COMPOSITIONS OF RIBAVIRIN” (GlaxoSmithKline Intellectual Property (No.2) Limited, priority 2015, published 2021).

Structures are written as SMILES. Some results are limits rather than exact numbers.

For data set [1] the following is noted: FDA approved labeling of Rebetol.
For data set [2] the following is noted: crystalline white powder.

For `NC(=O)c1ncn([C@@H]2O[C@H](CO)[C@@H](O)[C@H]2O)n1` [ribavirin, 1-β-D-ribofuranosyl-1H-1,2,4-triazole-3-carboxamide], in data set [1], the multiple-dose half-life was 12 days and the “persistence in nonplasma compartments” value is given as at most 6 months. In data set [2], the “solubility in ethanol (96%)” value is listed as “slightly soluble” and the solubility in water entry is given as “freely soluble”.
